Experimental findings from US8916576B2 (Surface Logix, Inc., priority 2005, dated 2014) are described below.

Molecules are shown by their SMILES. Values joined by “and” are separate entries in the source; they are usually repeats but may differ in a detail not shown here. Equal values may be shown once.

ROCK2, sequence (O75116 whole entry, species assumed): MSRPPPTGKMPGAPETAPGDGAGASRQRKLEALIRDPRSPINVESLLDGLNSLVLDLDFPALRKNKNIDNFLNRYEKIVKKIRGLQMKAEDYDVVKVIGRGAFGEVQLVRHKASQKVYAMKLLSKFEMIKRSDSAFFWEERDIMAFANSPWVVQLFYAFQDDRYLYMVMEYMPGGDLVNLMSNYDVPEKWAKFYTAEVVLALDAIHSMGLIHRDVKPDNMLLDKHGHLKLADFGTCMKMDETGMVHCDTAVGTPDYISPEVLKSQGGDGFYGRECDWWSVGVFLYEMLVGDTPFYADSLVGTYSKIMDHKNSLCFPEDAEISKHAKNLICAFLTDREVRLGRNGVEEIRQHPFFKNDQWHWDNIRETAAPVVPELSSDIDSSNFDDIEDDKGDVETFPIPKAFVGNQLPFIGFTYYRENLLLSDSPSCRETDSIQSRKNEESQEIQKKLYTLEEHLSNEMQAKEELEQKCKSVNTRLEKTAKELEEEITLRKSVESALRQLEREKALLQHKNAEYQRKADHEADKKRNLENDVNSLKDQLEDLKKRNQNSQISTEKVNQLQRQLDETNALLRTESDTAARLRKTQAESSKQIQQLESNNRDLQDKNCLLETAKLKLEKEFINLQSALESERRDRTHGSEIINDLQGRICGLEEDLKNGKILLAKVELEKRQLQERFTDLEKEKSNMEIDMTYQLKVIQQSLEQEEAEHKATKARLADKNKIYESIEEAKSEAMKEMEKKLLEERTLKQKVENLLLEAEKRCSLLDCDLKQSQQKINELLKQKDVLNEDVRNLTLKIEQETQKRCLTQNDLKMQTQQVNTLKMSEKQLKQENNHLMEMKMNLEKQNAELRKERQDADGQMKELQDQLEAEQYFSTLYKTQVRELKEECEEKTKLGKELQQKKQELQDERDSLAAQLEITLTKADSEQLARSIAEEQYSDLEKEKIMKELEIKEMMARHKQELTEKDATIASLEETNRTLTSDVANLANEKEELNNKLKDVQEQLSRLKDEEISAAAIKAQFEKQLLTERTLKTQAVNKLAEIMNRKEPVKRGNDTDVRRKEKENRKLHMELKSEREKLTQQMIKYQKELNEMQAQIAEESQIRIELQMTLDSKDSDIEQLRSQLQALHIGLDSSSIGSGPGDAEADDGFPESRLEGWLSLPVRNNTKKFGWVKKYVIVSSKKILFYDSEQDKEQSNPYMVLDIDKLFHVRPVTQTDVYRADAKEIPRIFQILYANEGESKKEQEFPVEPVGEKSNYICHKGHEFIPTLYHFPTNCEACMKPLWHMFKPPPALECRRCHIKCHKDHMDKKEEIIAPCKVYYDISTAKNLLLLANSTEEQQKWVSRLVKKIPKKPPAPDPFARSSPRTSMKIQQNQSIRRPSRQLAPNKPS

For one assay, the target named is ROCK 1 (Homo sapiens (Human), UniProt Q13464). The experiment in a line: Inhibition of ROCK1 (Rho kinase inhibition assay). Type of assay: biochemical. As to conditions: Tables 2.1-2.4. From the text: (§1) Methods of determining kinase inhibition are well known in the art. For example, kinase activity of an enzyme and the inhibitory capacity of a test compound can be determined by measuring enzyme specific phosphorylation of a substrate. Commercial assays and kits can be employed. For example, kinase inhibition can be determined using an IMAP® assay (Molecular Devices). This assay method involves the use of a fluorescently-tagged peptide substrate. Phosphorylation of the tagged peptide by a kinase of interest promotes binding of the peptide to a trivalent metal-based nanoparticle via the specific, high affinity interaction between the phospho-group and the trivalent metal. Proximity to the nanoparticle results in increased fluorescence polarization. Inhibition of the kinase by a kinase inhibitor prevents phosphorylation of the substrate and thereby limits binding of the fluorescently-tagged substrate to the nanoparticle. Such an assay can be compatible with a microwell assay format, allowing simultaneous determination of IC50 of multiple compounds.
ROCK 1, sequence (Q13464 whole entry, species assumed): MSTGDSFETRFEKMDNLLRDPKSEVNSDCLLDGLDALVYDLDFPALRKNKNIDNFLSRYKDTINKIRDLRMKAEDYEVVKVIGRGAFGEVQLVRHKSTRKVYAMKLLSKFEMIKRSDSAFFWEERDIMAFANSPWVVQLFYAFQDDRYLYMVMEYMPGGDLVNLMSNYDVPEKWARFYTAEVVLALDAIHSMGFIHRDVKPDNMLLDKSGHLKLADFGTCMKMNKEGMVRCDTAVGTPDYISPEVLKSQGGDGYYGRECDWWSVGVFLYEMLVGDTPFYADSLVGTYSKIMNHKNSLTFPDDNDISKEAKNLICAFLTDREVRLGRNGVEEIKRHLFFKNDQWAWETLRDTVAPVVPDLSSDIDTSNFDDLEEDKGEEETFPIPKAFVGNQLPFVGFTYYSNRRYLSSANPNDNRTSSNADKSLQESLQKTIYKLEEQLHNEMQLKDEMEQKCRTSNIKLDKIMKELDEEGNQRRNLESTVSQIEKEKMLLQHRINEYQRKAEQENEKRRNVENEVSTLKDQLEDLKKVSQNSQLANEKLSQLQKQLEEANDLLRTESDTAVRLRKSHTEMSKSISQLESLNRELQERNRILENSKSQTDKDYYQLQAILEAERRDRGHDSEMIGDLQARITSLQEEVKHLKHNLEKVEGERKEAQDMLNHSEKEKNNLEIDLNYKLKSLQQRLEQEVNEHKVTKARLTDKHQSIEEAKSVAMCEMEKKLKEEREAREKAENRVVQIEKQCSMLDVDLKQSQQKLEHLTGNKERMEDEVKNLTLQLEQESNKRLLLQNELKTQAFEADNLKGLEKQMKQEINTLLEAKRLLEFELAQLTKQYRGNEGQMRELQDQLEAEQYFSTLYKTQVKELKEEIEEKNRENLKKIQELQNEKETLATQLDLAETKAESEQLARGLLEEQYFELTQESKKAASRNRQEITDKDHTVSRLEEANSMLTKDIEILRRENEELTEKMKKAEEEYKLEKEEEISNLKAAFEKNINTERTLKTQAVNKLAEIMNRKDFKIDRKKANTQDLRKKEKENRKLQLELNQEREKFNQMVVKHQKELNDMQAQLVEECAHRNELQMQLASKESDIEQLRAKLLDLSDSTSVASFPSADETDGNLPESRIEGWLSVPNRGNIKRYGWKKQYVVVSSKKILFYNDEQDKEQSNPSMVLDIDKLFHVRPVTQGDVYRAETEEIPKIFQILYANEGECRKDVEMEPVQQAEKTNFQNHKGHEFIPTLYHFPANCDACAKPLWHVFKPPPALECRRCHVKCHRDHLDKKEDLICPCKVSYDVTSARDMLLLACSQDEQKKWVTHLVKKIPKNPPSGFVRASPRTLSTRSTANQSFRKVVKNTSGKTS
(§2) Inhibition of ROCK2 by various compounds was determined.
(§3) Inhibitory activity for Rho kinase was determined for examples of compounds of the present invention. Inhibition of Rho kinase can be assayed as described. For each of these compounds their inhibitory activity for both ROCK 1 and ROCK 2 was determined. […] The IC50 values (in μM) for each of these compounds show a selectivity for inhibiting ROCK2.
The compound `O=C(COc1cccc(-c2nc(Nc3ccc4[nH]ncc4c3)c3ccccc3n2)c1)Nc1cccnc1` [Example 55, 2-(3-(4-(1H-indazol-5-ylamino)quinazolin-2-yl)phenoxy)-N-(pyridin-3-yl)acetamide] yielded an IC50 of more than 10000 nM. `COc1cc2nc(-c3cccc(NC(=O)CN4CCOCC4)c3)nc(Nc3ccc4[nH]ncc4c3)c2cc1OCCN1CCCC1` [Example 167, N-(3-(4-(1H-Indazol-5-ylamino)-7-methoxy-6-(2-(pyrrolidin-1-yl)ethoxy)quinazolin-2-yl)phenyl)-2-morpholinoacetamide] showed an IC50 of more than 3000 nM.

`COCCNC(=O)COc1cccc(-c2nc(Nc3ccc4[nH]ncc4c3)c3ccccc3n2)c1` [Example 54, 2-(3-(4-(1H-indazol-5-ylamino)quinazolin-2-yl)phenoxy)-N-(2-methoxyethyl)acetamide]: the half-inhibitory concentration (IC50) was more than 10000 nM. Turning to `CCCC(=O)Nc1cccc(-c2nc(Nc3ccc4[nH]ncc4c3)c3cc(OCCCN4CCOCC4)c(OC)cc3n2)c1` [Example 160, N-(3-(4-(1H-indazol-5-ylamino)-7-methoxy-6-(3-morpholinopropoxy)quinazolin-2-yl)phenyl)butyramide], the 50% inhibitory concentration (IC50) was more than 3000 nM. Regarding `CC(=O)Oc1cccc(-c2nc(Nc3ccc4[nH]ncc4c3)c3ccccc3n2)c1` [Example 272], the concentration for half-maximal inhibition (IC50) is more than 10000 nM. Compound `CCCC(=O)Nc1cccc(-c2nc(Nc3ccc4[nH]ncc4c3)c3cc(OCCN(C)C)ccc3n2)c1` [Example 141, N-(3-(4-(1H-indazol-5-ylamino)-6-(2-(dimethylamino)ethoxy)quinazolin-2-yl)phenyl)butyramide] registered an IC50 of more than 1000 nM. Same read-out and setting: for `CCCC(=O)Nc1cccc(-c2nc(Nc3ccc4[nH]ncc4c3)c3ccc(OCCOC)cc3n2)c1` [Example 263] the value was more than 3000 nM.

Another assay addresses ROCK2 (Homo sapiens (Human), UniProt O75116). The experiment in a line: Inhibition of ROCK2 (Rho kinase inhibition assay; ROCK-II Assay Kit / IMAP). Type of assay: biochemical. The settings on record: FIG. 10 legend; ROCK2 versus ROCK1 and PKC.
From the text: as §1
ROCK-II inhibitory activity can be measured using the ROCK-II Assay Kit (Molecular Devices, inc.; Sunnyvale, Calif.).
as §2, §3
With `CC(C)NC(=O)COc1cccc(-c2nc(Nc3ccc4[nH]ncc4c3)c3ccccc3n2)c1` [Example 82, 2-(3-(4-(1H-indazol-5-ylamino)quinazolin-2-yl)phenoxy)-N-isopropylacetamide], the “Specificity of kinase inhibition (FIG. 10)” value is listed as “specific inhibition of ROCK2”. In the case of `C[C@@H](N)[C@H]1CC[C@H](C(=O)Nc2ccncc2)CC1` [Example Y27632, reference compound], the “Specificity of kinase inhibition (FIG. 10)” value was “inhibits both ROCK1 and ROCK2, as well as PKC”.

The assay is the same for the next values; noted with them: Table 1; repeat determinations.
On to `O=C(COc1ccccc1-c1nc(Nc2ccc3[nH]ncc3c2)c2ccccc2n1)NCc1ccccc1` [Example 237], for which the IC50 was more than 100 µM. `O=C(COc1ccccc1-c1nc(N(CC(=O)NCc2ccccc2)c2ccc3[nH]ncc3c2)c2ccccc2n1)NCc1ccccc1` [Example 236] had a half-inhibitory concentration (IC50) of more than 100 µM. Consider `COCCNC(=O)COc1ccccc1-c1nc(N(CC(=O)NCCOC)c2ccc3[nH]ncc3c2)c2ccccc2n1` [Example 238], for which the half-maximal inhibitory concentration (IC50) was more than 100 µM. For the compound `COc1ccccc1-c1nc(Nc2ccc3[nH]ncc3c2)c2ccccc2n1` [Example 239], the IC50 is more than 100 µM. On the same count and under the same terms, with `Oc1ccc2nc(-c3ccccc3)nc(Nc3ccc4[nH]ncc4c3)c2c1` [Example 267] the figure was 3.9 µM; with `CCCC(=O)Oc1cccc(-c2nc(Nc3ccc4[nH]ncc4c3)c3ccccc3n2)c1` [Example 211], 0.129 µM. `CC(=O)Oc1ccccc1-c1nc(Nc2ccc3[nH]ncc3c2)c2ccccc2n1` [Example 240] had an IC50 of 23 µM. As to `CCCC(=O)Nc1cccc(-c2nc(Nc3ccc4c(cnn4C)c3)c3cc(OCCN(C)C)ccc3n2)c1` [Example 243], the IC50 is more than 0.3 µM. As for `CCCC(=O)Nc1cccc(-c2nc(Nc3ccc4[nH]ncc4c3)c3cc(OCCN4CCN(C)CC4)c(OC)cc3n2)c1` [Example 209, N-(3-(4-(1H-indazol-5-ylamino)-7-methoxy-6-(2-(4-methylpiperazin-1-yl)ethoxy)quinazolin-2-yl)phenyl)butyramide], the 50% inhibitory concentration (IC50) is 0.016 µM and 0.014 µM. Take `c1ccc(-c2nc(Nc3ccc4[nH]ncc4c3)c3cc(OCCN4CCOCC4)ccc3n2)cc1` [Example 265]: the 50% inhibitory concentration (IC50) is 6.5 µM and 7.3 µM. The compound `CCCC(=O)Nc1cccc(-c2nc(Nc3ccc4c(cnn4C(=O)OC(C)(C)C)c3)c3cc(OCCOC)c(OC)cc3n2)c1` [Example 261] gave a 50% inhibitory concentration (IC50) of more than 0.3 µM. Same read-out and setting: with `CCCC(=O)Nc1cccc(-c2nc(Nc3ccc4[nH]ncc4c3)c3cc(OCCN4CC[C@H](N(C)C)C4)c(OC)cc3n2)c1` [Example 210, N-(3-(4-(1H-indazol-5-ylamino)-6-(2-((S)-3-(dimethylamino)pyrrolidin-1-yl)ethoxy)-7-methoxyquinazolin-2-yl)phenyl)butyramide] the figure was 0.018 µM and 0.01 µM; with `COCCN(C)CC(=O)Nc1ccccc1-c1nc(Nc2ccc3[nH]ncc3c2)c2ccccc2n1` [Example 213], more than 100 µM. With `Oc1ccccc1-c1nc(Nc2ccc3[nH]ncc3c2)c2ccccc2n1` [Example 233], the IC50 is 2 µM and 2.5 µM. The same measure, in the same setting: for `CCCC(=O)Nc1cccc(-c2nc(Nc3ccc4[nH]ncc4c3)c3cc(OCCN4CCN(C)CC4)ccc3n2)c1` [Example 203, N-(3-(4-(1H-indazol-5-ylamino)-6-(2-(4-methylpiperazin-1-yl)ethoxy)-quinazolin-2-yl)phenyl)butyramide] the value was 0.012 µM and 0.0095 µM.

Regarding `CNCC(=O)Nc1ccccc1-c1nc(Nc2ccc3[nH]ncc3c2)c2ccccc2n1` [Example 215], the IC50 was 17 µM and > 10 µM. Still for that read-out and setting: for `O=C(CN1CCOCC1)Nc1ccccc1-c1nc(Nc2ccc3[nH]ncc3c2)c2ccccc2n1` [Example 231] the value was more than 3 µM. The compound `CC(C)(C)C(=O)Nc1ccccc1-c1nc(Nc2ccc3[nH]ncc3c2)c2ccccc2n1` [Example 214] displayed a half-inhibitory concentration (IC50) of more than 100 µM. As for `O=C(Nc1ccccc1-c1nc(Nc2ccc3[nH]ncc3c2)c2ccccc2n1)c1ccccn1` [Example 223], the half-maximal inhibitory concentration (IC50) was more than 100 µM. `O=C(COc1ccccc1-c1nc(N(CC(=O)NCC2CC2)c2ccc3[nH]ncc3c2)c2ccccc2n1)NCC1CC1` [Example 235] returned a concentration for half-maximal inhibition (IC50) of more than 100 µM. `CC(C)NC(=O)CNc1cccc(-c2nc(Nc3ccc4[nH]ncc4c3)c3ccccc3n2)c1` [Example 230]: the half-maximal inhibitory concentration (IC50) is more than 3 µM. Consider `O=C(Nc1ccccc1-c1nc(Nc2ccc3[nH]ncc3c2)c2ccccc2n1)c1ccoc1` [Example 216], for which the 50% inhibitory concentration (IC50) is more than 100 µM.

On to `CCCCC(=O)Nc1cccc(-c2nc(Nc3ccc4[nH]ncc4c3)c3ccccc3n2)c1` [Example 259], for which 0.029 µM corresponded to half-maximal inhibition (IC50). For `CN(C)CCC(=O)Nc1ccccc1-c1nc(Nc2ccc3[nH]ncc3c2)c2ccccc2n1` [Example 224], the 50% inhibitory concentration (IC50) was determined as 5.3 µM.

Compound `O=C(Nc1ccccc1-c1nc(Nc2ccc3[nH]ncc3c2)c2ccccc2n1)c1ccncc1` [Example 222] yielded an IC50 of more than 100 µM. Compound `O=C(Nc1ccccc1-c1nc(Nc2ccc3[nH]ncc3c2)c2ccccc2n1)N1CCOCC1` [Example 220] came in with an IC50 of more than 100 µM. The same measure, in the same setting: for `CCCC(=O)Nc1cccc(-c2nc(Nc3ccc4[nH]ncc4c3)c3cc(OCC4CC4)ccc3n2)c1` [Example 258] the value was 0.255 µM and 0.182 µM; for `CCCC(=O)Nc1ccccc1-c1nc(Nc2ccc3[nH]ncc3c2)c2ccccc2n1` [Example 212], more than 100 µM. Same read-out and setting: for `COC(=O)Nc1ccccc1-c1nc(Nc2ccc3[nH]ncc3c2)c2ccccc2n1` [Example 219] the value was 2.9 µM; for `O=C(CN1CCCC1)Nc1ccccc1-c1nc(Nc2ccc3[nH]ncc3c2)c2ccccc2n1` [Example 217], 36 µM; for `CCCC(=O)Nc1cccc(-c2nc(Nc3ccc4[nH]ncc4c3)c3cc(OC)c(OCCOC)cc3n2)c1` [Example 262], 0.024 µM. `CC(C)NC(=O)COc1ccccc1-c1nc(Nc2ccc3[nH]ncc3c2)c2ccccc2n1` [Example 232] gave an IC50 of more than 100 µM. For `CCCC(=O)Nc1cccc(-c2nc(Nc3ccc4[nH]ncc4c3)c3cc(OCCN4CCCC4=O)c(OC)cc3n2)c1` [Example 206, N-(3-(4-(1H-indazol-5-ylamino)-7-methoxy-6-(2-(2-oxopyrrolidin-1-yl)ethoxy)quinazolin-2-yl)phenyl)butyramide], the half-inhibitory concentration (IC50) is 0.048 µM and 0.064 µM. `CN(C)C(=O)Nc1ccccc1-c1nc(Nc2ccc3[nH]ncc3c2)c2ccccc2n1` [Example 221] returned an IC50 of 49 µM. Consider `COCCNC(=O)COc1ccccc1-c1nc(Nc2ccc3[nH]ncc3c2)c2ccccc2n1` [Example 234], for which the concentration for half-maximal inhibition (IC50) is more than 100 µM.

`COCC(=O)Nc1ccccc1-c1nc(Nc2ccc3[nH]ncc3c2)c2ccccc2n1` [Example 225] gave a concentration for half-maximal inhibition (IC50) of 1.7 µM.

Regarding `CCCC(=O)Nc1cccc(-c2nc(Nc3ccc4[nH]ncc4c3)c3cc(OCCN4CCC(O)C4)ccc3n2)c1` (centres unmarked) [Example 205, N-(3-(4-(1H-indazol-5-ylamino)-6-(2-(3-hydroxypyrrolidin-1-yl)ethoxy)-quinazolin-2-yl)phenyl)butyramide], the half-inhibitory concentration (IC50) is 0.011 µM and 0.012 µM and 0.008 µM and 0.013 µM. As to `O=C(Nc1ccccc1-c1nc(Nc2ccc3[nH]ncc3c2)c2ccccc2n1)C1CCCNC1` (centres unmarked) [Example 218], the half-maximal inhibitory concentration (IC50) is more than 100 µM.
